We go through nine compounds from patent US8506984B2, “Therapeutic agent elution control process” (Cordis Corporation, priority 2006, dated 2013).

The nature of data set [1]: Drug concentration in liquid formulations (liquid chromatography / HPLC). It is filed as physicochemical. Conditions: Vitamin E TPGS excipient, water and ethanol (<2%) co-solvents. An excerpt:
In accordance with exemplary embodiments of the present invention, a series of liquid formulations were developed for the local or regional delivery of water insoluble compounds such as sirolimus and its analogs, including CCI-779, ABT-578 and everolimus, through weeping balloons and catheter injection needles. […] These liquid formulations increase the apparent solubility of the pharmacologically active but water insoluble compounds by two to four orders of magnitude as compared to the solubility limits of the compounds in water. These liquid formulations rely on the use of a very small amount of organic solvents such as Ethanol (typically less than two percent) and a larger amount of safe amphiphilic (of or relating to a molecule having a polar, water soluble group attached to a non-polar, water insoluble […]) excipients such as polyethylene glycol (PEG 200, PEG 400) and vitamin E TPGS to enhance the solubility of the compounds. These liquid formulations of highly water insoluble compounds are stable and readily flowable at room temperature. Certain excipients, such as Vitamin E TPGS and BHT may be utilized to enhance the storage stability of sirolimus compounds through their anti-oxidation properties. […]

Data set [2] has as its system human coronary artery smooth muscle cells. The data set can be described thus: Proliferation of non-synchronized cultured human coronary artery smooth muscle cells stimulated with two percent fetal bovine serum. Format: cell-based. As to conditions: for effect of added agent on anti-proliferative rapamycin dose response: added to rapamycin-treated cells. From the text:
The multiple curves represent various concentrations of mycophenolic acid ranging from zero to one thousand nanomolar concentrations. […] This potentiation observed in cultured coronary artery smooth muscle cells preferably translates to an enhancement in anti-restenotic efficacy following vascular injury and a reduction in the required amount of either agent to achieve the desired anti-restenotic effect.
FIG. 58 illustrates, in graphical format, the anti-proliferative activity of cladribine in non-synchronized cultured human coronary artery smooth muscle cells stimulated with two percent fetal bovine serum.
The multiple curves represent various concentrations of cladribine ranging from zero to nine hundred nanomolar concentrations. […] As illustrated, the percent inhibition increases substantially as the dose of cladribine increases.

Data set [3] relates to human coronary artery smooth muscle cell. Briefly: MTS cytotoxicity assay. Format: cell-based. Conditions: concentrations up to 30,000.00 nanomolar. From the text: Typically, a control is utilized to determine baseline toxicity.
For data set [4], the system named is human coronary artery smooth muscle cells. The data set can be described thus: Proliferation of synchronized cultured human coronary artery smooth muscle cells stimulated with two percent fetal bovine serum. As to conditions: for effect of added agent on anti-proliferative rapamycin dose response: added to rapamycin-treated cells. It is filed as cell-based. From the text:
(§1) The multiple curves represent various concentrations of topotecan ranging from zero to three hundred nanomolar concentrations.
(§2) The multiple curves represent various concentrations of etoposide ranging from zero to eight hundred nanomolar concentrations.
The multiple curves represent various concentrations of Panzem® ranging from zero to 100 micromolar concentrations.

The nature of data set [5]: Porcine drug elution PK study of dual drug eluting stent. It is filed as in vivo. As to conditions: after eight (8) days of implantation; single-layer sirolimus/cilostazol coating (FIG. 83), 100 μg BMA overcoat. From the text:
Another critical parameter for the performance of the thrombus resistance of a device coated with cilostazol is the duration of the drug release from the coating. This is of particular significance in the two weeks after device implantation. In the porcine drug elution PK studies of the dual drug eluting coating, both cilostazol and sirolius were slowly released from the coating, resulting in a sustained drug release profile. The purpose of the porcine PK study is to assess the local pharmacokinetics of a drug eluting stent at a given implantation time. Normally three stents are implanted in three different coronary arteries in a pig for a given time point and then retrieved for total drug recovery analysis. The stents are retrieved at predetermined time points; namely, 1, 3 and 8 days. The stents are extracted and the total amount of drug remaining on the stents is determined by analysis utilizing HPLC (high performance liquid chromatography) for total drug amount. The difference between the original amount of drug on the stent and the amount of drug retrieved at a given time represents the amount of drug released in that period. The continuous release of drug into surrounding arterial tissue is what prevents the neointimal growth and restenosis in the coronary artery. A normal plot represents the percentage of total drug released (%, y-axis) vs. time of implantation (day, x-axis). […]

Data set [6] can be described thus: In vitro release from sirolimus/cilostazol single layer stent coating. It is filed as physicochemical. As to conditions: single-layer sirolimus/cilostazol coating (FIG. 83).
The next data set concerns cell viability. Briefly: Cell viability assay. It is filed as cell-based.
Text: as §1, §2

Data set [7] has as its system human coronary artery smooth muscle cell. Briefly: Human coronary artery smooth muscle cell proliferation, in vitro cell culture study (trichostatin A). It is filed as cell-based. From the text:
FIG. 51 is a graph of the inhibition of coronary artery smooth muscle cells by trichostatin A in a cell culture study.

The test system of another data set is tumor cell lines. As to conditions: cited from earlier work.

In the case of `CO[C@H]1C[C@@H]2CC[C@@H](C)[C@@](O)(O2)C(=O)C(=O)N2CCCC[C@H]2C(=O)O[C@H]([C@H](C)C[C@@H]2CC[C@@H](OC(=O)C(C)(CO)CO)[C@H](OC)C2)CC(=O)[C@H](C)/C=C(\C)[C@@H](O)[C@@H](OC)C(=O)[C@H](C)C[C@H](C)/C=C/C=C/C=C/1C` [CCI-779], the “concentration in the final solution (HPLC assay)” value in data set [1] worked out at 15000 µg/mL.
`Nc1nc(Cl)nc2c1ncn2[C@H]1C[C@H](O)[C@@H](CO)O1` [Cladribine, 2-chlorodeoxyadenosine]: the “effect of added agent on anti-proliferative rapamycin dose response” value (“effect of added agent” for short) in data set [2] is listed as “potentiate the anti-proliferative activity of rapamycin”. In data set [2] (two percent fetal bovine serum), the “inhibition of human coronary artery smooth muscle cell proliferation” value is “completely inhibits”.
As to `COc1cc2c(cc1O)CC[C@@H]1[C@@H]2CC[C@]2(C)[C@@H](O)CC[C@@H]12` [Panzem®, 2-methoxyestradiol], in [3], the “human coronary artery smooth muscle cell survival (MTS)” value is listed as “do not reduce human coronary artery smooth muscle cell survival”. Further, in data set [4], the “effect of added agent” value is “increases the percent of inhibition of rapamycin alone”. Also, in [4] (two percent fetal bovine serum), the “inhibition of human coronary artery smooth muscle cell proliferation in vitro” value is recorded as “extremely effective inhibitor”.
With `CO[C@H]1C[C@@H]2CC[C@@H](C)[C@@](O)(O2)C(=O)C(=O)N2CCCC[C@H]2C(=O)O[C@H]([C@H](C)C[C@@H]2CC[C@@H](O)[C@H](OC)C2)CC(=O)[C@H](C)/C=C(\C)[C@@H](O)[C@@H](OC)C(=O)[C@H](C)C[C@H](C)/C=C/C=C/C=C/1C` [Rapamycin, rapamycin], the “drug remaining in the drug coating” value in [5] is around 80%.
In [6], `O=C1CCc2cc(OCCCCc3nnnn3C3CCCCC3)ccc2N1` [cilostazol, 6[4-(1-cyclohexyl-1H-tetrazol-5-yl)-butoxy]-3,4-dihydro-2-(1H)-quinolinone] came in with an in vitro release of around 35%. The “drug remaining in the drug coating” value in data set [5] is given as around 80%.
Take `COc1cc([C@@H]2c3cc4c(cc3[C@@H](O[C@@H]3O[C@@H]5CO[C@@H](C)O[C@H]5[C@H](O)[C@H]3O)[C@H]3COC(=O)[C@H]23)OCO4)cc(OC)c1O` [etoposide]: the “effect of added agent” value in data set [2] is “potentiate the anti-proliferative activity of rapamycin”. For the same compound, in the data set on cell viability (concentrations up to ten micromolar), the “cytotoxicity in cell viability assay” value is given as “non-cytotoxic”.
Turning to `COc1c(C)c2c(c(O)c1C/C=C(\C)CCC(=O)O)C(=O)OC2` [mycophenolic acid], the “effect of added agent” value in data set [2] is “potentiates the anti-proliferative activity of rapamycin”.
On to `CC[C@@]1(O)C(=O)OCc2c1cc1n(c2=O)Cc2cc3c(CN(C)C)c(O)ccc3nc2-1` [topotecan], for which, in data set [4], the “effect of added agent” value was “potentiate the anti-proliferative activity of rapamycin”. In addition, the “cytotoxicity in cell viability assay” value in the data set with cell viability (concentrations up to one micromolar) is given as “non-cytotoxic”.
The IC50 is the concentration that inhibits the measured activity by half. Take `CC(/C=C/C(=O)NO)=C\[C@@H](C)C(=O)c1ccc(N(C)C)cc1` [trichostatin A]: in data set [7], the “inhibition of human coronary artery smooth muscle cell proliferation” value was “completely inhibit”. For the same compound, the IC50 in [7] (read-out: anti-proliferative IC50) is around 6 nM. Also, in the data set with tumor cell lines, the “anti-proliferative IC50” value is on record as “low nM range”.
